{
  "source": "PubChem BioAssay AID1963832",
  "about": "(Molecular Pharmacology Branch, DTP, NCI, 2024)",
  "system": "885724-159-R-J1-PDC complex spheroid viability",
  "test": "Anticancer human tumor 885724-159-R-J1-PDC patient-derived pancreatic adenocarcinoma cell line growth inhibition [POLQ]",
  "settings": "for pIC50: curve of first compound; for viability, T/C: stronger effect = lower value",
  "experimental": "Multicellular complex tumor spheroid response to Polymerase (POL) inhibitors (novobiocin, ART-558, RP6685) in combination with a variety of drugs and investigational agents in selected tumor cell lines\nThe POL inhibitors (novobiocin, ART-558, and RP6685) were evaluated both individually and in combination with standard of care and investigational anticancer small molecules within a complex spheroid model of solid tumors. . Complex spheroids include a stromal component modeled by human endothelial cells (HUVEC) and fibroblasts modeled by human mesenchymal stem cells (MSCs). The concentration ranges selected for each drug and investigational agent were based upon clinically achievable concentrations if the clinical Cmax of the agent was known.\nCompounds. The drugs and investigational agents: novobiocin (NSC847541), ART-558 (NSC835418), RP-6685 (NSC848927), peposertib (NSC802822), ceralasertib (NSC780249), elimusertib (NSC800525), camonsertib (NSC841442), AZD-1390 (NSC803789), olaparib (NSC753686), talazoparib (NSC767125), rucaparib (NSC756644), sotorasib (NSC818433), MRTX-1133 (NSC836407), SN-38 (NSC673596), topotecan (NSC609699), epotoside (NSC141540), doxorubicin (NSC123127), gemcitabine (NSC613327), 5-fluorouracil (NSC19893), paclitaxel (NSC125973), vemurafenib (NSC761431), MSA-2 (NSC828583), SN-011 (NSC837082), adavosertib (NSC754352), prexasertib (NSC758257), carboplatin (NSC241240) and oxaliplatin (NSC266046), were obtained from the National Cancer Institute (NCI) Developmental Therapeutics Program Chemical Repository (21). The FDA-approved anticancer drug set is available from the Developmental Therapeutics Program at https://dtp.cancer.gov/organization/dscb/obtaining/. […] The stock solutions were prepared in dimethyl sulfoxide (DMSO, Sigma-Aldrich, St. Louis, MO, cat. D2650), except for the platinum compounds which were prepared in saline (Quality Biological, Gaithersburg, MD, cat. 114-055-101), at 800-fold the tested concentration and stored at -70 degrees C prior to their use. All drugs and investigational agents were tested over a range starting from a high concentration at or near the clinical Cmax and decreasing in half-log increments. If the clinical Cmax for an agent had not been determined, the highest concentration tested was 10 microM, except for SN-38, which was tested at a high concentration of 1 microM.\nCell Culture. All cells were maintained in an incubator at 37 degrees C and 5% CO2 with 95% humidity. The PDC lines were cultured according to standard operating procedures established by the NCI PDMR (https://pdmr.cancer.gov). Table 3 of the manuscript, lists the cell lines along with the number of the three cell types plated to form the mct-spheroids and media for tumor cell growth. After thawing, all PDC lines, except 997537-175-T-J1-PDC and 415267-285-R-J2-PDC, were cultured in Matrigel-coated flasks prepared with a working solution of 1X Ham's F-12 nutrient mix, without supplementation (Thermo Fisher Scientific, cat. 11765054), 100 U/mL penicillin-streptomycin (Thermo Fisher Scientific, cat. 15140122), and 2.5% Matrigel (Corning Inc., Corning, NY, cat. 354248) for the first three passages. The two PDC lines 997537-175-T-J1-PDC and 415267-285-R-J2-PDC were cultured on uncoated flasks. The 857933-349-R-J2-PDC line was cultured in 6C/Colon 1B media containing advanced DMEM/F-12 (Thermo Fisher Scientific, cat. 12634028), 10 mM HEPES (Thermo Fisher Scientific, cat. 15630080), 1X GlutaMAX supplement (Thermo Fisher Scientific, cat. 35050061), 0.1 mg/mL primocin (InvivoGen, San Diego, CA, cat. ant-pm-2), 10% defined fetal bovine serum, heat inactivated (HyClone Laboratories Inc., Logan, UT, cat. SH30070.03HI), 50% L-WRN conditioned media (ATCC, cat. CRL-3276), 1.25 mM N-Acetyl-L-cysteine (Sigma-Aldrich, cat. A9165), 10 mM nicotinamide (Sigma-Aldrich, cat. N0636), 1X B-27 supplement (Thermo Fisher Scientific, cat. 17504044), 1X N-2 supplement (Thermo Fisher Scientific, cat. […]",
  "note": "pIC50: −log10 of the molar value.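 Further: spheroids exposed to compounds for 7 days.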",
  "data": [
    {"smiles": "C#Cc1c(F)ccc2cc(O)cc(-c3ncc4c(N5CC6CCC(C5)N6)nc(OCC56CCCN5CC(F)C6)nc4c3F)c12", "note": "(configuration not stated) + Cc1cccc(N(C)C(=O)C2C(O)CCN2c2nc(C)cc(C(F)(F)F)c2C#N)c1", "values": [
      {"measurement": "pIC50", "setting": "second compound 0.0316 µM", "value": 5.61},
      {"measurement": "pIC50", "setting": "second compound 0.1 µM", "value": 5.63},
      {"measurement": "pIC50", "setting": "second compound 0.316 µM", "value": 5.67},
      {"measurement": "pIC50", "setting": "second compound 1 µM", "value": 5.66},
      {"measurement": "pIC50", "setting": "second compound 3.16 µM", "value": 5.71},
      {"measurement": "pIC50", "setting": "second compound 10 µM", "value": 5.83},
      {"measurement": "viability, T/C", "setting": "second compound 0.0316 µM, first compound 0.0316 µM", "value": 98.6, "unit": "%"},
      {"measurement": "viability, T/C", "setting": "second compound 0.0316 µM, first compound 0.1 µM", "value": 92.6, "unit": "%"},
      {"measurement": "viability, T/C", "setting": "second compound 0.0316 µM, first compound 0.316 µM", "value": 78.5, "unit": "%"},
      {"measurement": "viability, T/C", "setting": "second compound 0.0316 µM, first compound 1 µM", "value": 72, "unit": "%"},
      {"measurement": "viability, T/C", "setting": "second compound 0.0316 µM, first compound 3.16 µM", "value": 42.4, "unit": "%"},
      {"measurement": "viability, T/C", "setting": "second compound 0.0316 µM, first compound 10 µM", "value": 19.9, "unit": "%"},
      {"measurement": "viability, T/C", "setting": "second compound 0.1 µM, first compound 0.0316 µM", "value": 101, "unit": "%"},
      {"measurement": "viability, T/C", "setting": "second compound 0.1 µM, first compound 0.1 µM", "value": 93.1, "unit": "%"},
      {"measurement": "viability, T/C", "setting": "second compound 0.1 µM, first compound 0.316 µM", "value": 83.9, "unit": "%"},
      {"measurement": "viability, T/C", "setting": "second compound 0.1 µM, first compound 1 µM", "value": 68.8, "unit": "%"},
      {"measurement": "viability, T/C", "setting": "second compound 0.1 µM, first compound 3.16 µM", "value": 42.7, "unit": "%"},
      {"measurement": "viability, T/C", "setting": "second compound 0.1 µM, first compound 10 µM", "value": 18.4, "unit": "%"},
      {"measurement": "viability, T/C", "setting": "second compound 0.316 µM, first compound 0.0316 µM", "value": 95.5, "unit": "%"},
      {"measurement": "viability, T/C", "setting": "second compound 0.316 µM, first compound 0.1 µM", "value": 87.5, "unit": "%"},
      {"measurement": "viability, T/C", "setting": "second compound 0.316 µM, first compound 0.316 µM", "value": 95.4, "unit": "%"},
      {"measurement": "viability, T/C", "setting": "second compound 0.316 µM, first compound 1 µM", "value": 70, "unit": "%"},
      {"measurement": "viability, T/C", "setting": "second compound 0.316 µM, first compound 3.16 µM", "value": 39.7, "unit": "%"},
      {"measurement": "viability, T/C", "setting": "second compound 0.316 µM, first compound 10 µM", "value": 20.6, "unit": "%"},
      {"measurement": "viability, T/C", "setting": "second compound 1 µM, first compound 0.0316 µM", "value": 93.3, "unit": "%"},
      {"measurement": "viability, T/C", "setting": "second compound 1 µM, first compound 0.1 µM", "value": 101, "unit": "%"},
      {"measurement": "viability, T/C", "setting": "second compound 1 µM, first compound 0.316 µM", "value": 79.7, "unit": "%"},
      {"measurement": "viability, T/C", "setting": "second compound 1 µM, first compound 1 µM", "value": 64.5, "unit": "%"},
      {"measurement": "viability, T/C", "setting": "second compound 1 µM, first compound 3.16 µM", "value": 44.2, "unit": "%"},
      {"measurement": "viability, T/C", "setting": "second compound 1 µM, first compound 10 µM", "value": 21.2, "unit": "%"},
      {"measurement": "viability, T/C", "setting": "second compound 3.16 µM, first compound 0.0316 µM", "value": 92.8, "unit": "%"},
      {"measurement": "viability, T/C", "setting": "second compound 3.16 µM, first compound 0.1 µM", "value": 94.2, "unit": "%"},
      {"measurement": "viability, T/C", "setting": "second compound 3.16 µM, first compound 0.316 µM", "value": 80.4, "unit": "%"},
      {"measurement": "viability, T/C", "setting": "second compound 3.16 µM, first compound 1 µM", "value": 62.8, "unit": "%"},
      {"measurement": "viability, T/C", "setting": "second compound 3.16 µM, first compound 3.16 µM", "value": 40.7, "unit": "%"},
      {"measurement": "viability, T/C", "setting": "second compound 3.16 µM, first compound 10 µM", "value": 19, "unit": "%"},
      {"measurement": "viability, T/C", "setting": "second compound 10 µM, first compound 0.0316 µM", "value": 93.8, "unit": "%"},
      {"measurement": "viability, T/C", "setting": "second compound 10 µM, first compound 0.1 µM", "value": 81, "unit": "%"},
      {"measurement": "viability, T/C", "setting": "second compound 10 µM, first compound 0.316 µM", "value": 80.3, "unit": "%"},
      {"measurement": "viability, T/C", "setting": "second compound 10 µM, first compound 1 µM", "value": 55.3, "unit": "%"},
      {"measurement": "viability, T/C", "setting": "second compound 10 µM, first compound 3.16 µM", "value": 36.2, "unit": "%"},
      {"measurement": "viability, T/C", "setting": "second compound 10 µM, first compound 10 µM", "value": 19.9, "unit": "%"}
    ]}
  ]
}
